Assay results reported in patent US11442057B2, “Method for screening anticancer agent inhibiting binding of AIMP2-DX2 and HSP70” (MEDICINAL BIOCONVERGENCE RESEARCH CENTER, priority 2016, dated 2022).

What was measured:
H460 cells xenograft = experiment: H460 xenograft in Balb/c nude mice; type: in vivo
Protocol: After the end of the experiment, the tumors were separated and weighed. The body weight and tumor size of the experimental animals were measured twice a week.

A549 (Lung cancer cells) = experiment: MTT assay of cell activity in A549 lung cancer cells; type: cell-based; details: 2.5, 5, 10, 20, 40 uM
[1] = tested on: WI-26 (Normal lung cells); experiment: MTT assay of cell activity in WI-26 normal lung cells; details: 2.5, 5, 10, 20, 40 uM
[2] = tested on: 293T cells overexpressing Strep-AIMP2-DX2; experiment: MTT assay of cell growth by AIMP2-DX2 in 293T cells overexpressing Strep-AIMP2-DX2; type: cell-based; details: inhibitors 12 hours or si-HSP70
Protocol: The HSP70 inhibitors Pifithrin-u (PES), and VER155008 (VER) and the HSP90 inhibitors Geldanamycin (Gel) and PUH71(Pu) were treated on 293T cells overexpressing Strep-AIMP2-DX2 and 293T cells not over-expressing, respectively for 12 hours, and MTT (Amresco) assay was performed. Each experiment was performed three times independently. Strep-AIMP2-DX2 was overexpressed in 293T cells, in which HSP70 expression was reduced using HSP70-specific si-RNA (si-HSP70), and MTT assay was performed. Each experiment was performed three times independently.

AIMP2-DX2 protein = experiment: Western blot of AIMP2-DX2 protein expression level in H460 cells; type: cell-based, human; details: HSP70 or HSP90 inhibitor treatment

Compound | growth of cancer cells (tumor volume) (H460 cells xenograft; 50 mg/kg, 5 times a week, 10 times in total, compared with Taxol 15 mpk) | tumor weight (H460 cells xenograft; 50 mg/kg, tumors separated and weighed at end of experiment) | body weight of mice (H460 cells xenograft; during the course of the experiment) | effect on lung cancer cell A549 (cell activity, MTT) (A549 (Lung cancer cells)) | effect on normal lung cell WI-26 (cell activity, MTT) [1] | increase in cell growth by AIMP2-DX2 [2] | expression level of AIMP2-DX2 protein after inhibitor treatment (AIMP2-DX2 protein)
Cc1ccc(S(=O)(=O)N[C@@H](Cc2c[nH]c3ccccc23)C(=O)Nc2ccc(N3CCOCC3)cc2)cc1 [BC-DXI-495] | inhibited to a degree similar to that of the control group Taxol | tumor suppressive effect was also confirmed in the tumor weight | no effect on the body weight | only lung cancer cells induce apoptosis | without any effect on normal cells | – | –
NS(=O)(=O)C#Cc1ccccc1 [PES, Pifithrin-u] | – | – | – | – | – | No increase in cell growth by AIMP2-DX2 was observed | decreased
CC(C)NCCCn1c(Sc2cc3c(cc2I)OCO3)nc2c(N)ncnc21 [PU, PUH71] | – | – | – | – | – | – | not affected
N#Cc1ccc(COC[C@H]2O[C@@H](n3c(NCc4ccc(Cl)c(Cl)c4)nc4c(N)ncnc43)[C@H](O)[C@@H]2O)cc1 [VER, VER155008] | – | – | – | – | – | No increase in cell growth by AIMP2-DX2 was observed | decreased
